“And” between values parts separate entries of the source, which are not always exact repeats. Equal entries are not always repeated. “Also recorded” adds a separate entry of the source.
Tests used:
ABAD [1] = molecular target: T1, ABAD (Homo sapiens, UniProt Q99714); settings: at 10 μM concentration; cited from earlier work
T1 sequence (Q99714 1-261): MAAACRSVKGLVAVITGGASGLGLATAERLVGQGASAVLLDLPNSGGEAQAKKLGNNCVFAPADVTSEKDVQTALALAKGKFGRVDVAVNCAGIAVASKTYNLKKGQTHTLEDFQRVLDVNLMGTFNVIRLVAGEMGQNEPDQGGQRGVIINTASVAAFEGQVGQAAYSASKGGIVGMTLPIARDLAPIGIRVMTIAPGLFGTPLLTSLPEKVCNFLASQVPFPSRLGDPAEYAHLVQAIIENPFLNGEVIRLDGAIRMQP

SH-SY5Y cells [2] = test: Aβ-induced toxicity in SH-SY5Y cells, MTS assay; assay type: cell-based, human; settings: pretreated 24 hrs, then 25 μM Aβ 48 hrs
Experimental: (§1) Cell Culture. The cell line SH-SY5Y was cultured in DMEM/F12 media supplemented with 10% fetal bovine serum, 1% penicillin-streptomycin and maintained as monolayer cultures in a humidified atmosphere containing 5% CO2 at 37° C.^42 All cell lines were authenticated via short tandem repeat analysis and tested for mycoplasma using the a commercial mycoplasma detection kit as per the manufacturer's instructions, showing no contamination. Where indicated, cells were also cultured in DMEM/low glucose media. All compounds were diluted to 20 mM solution in DMSO and were serially diluted in cell culture media for cell treatments to a final concentration range of 0.01 to 100 μM, maintaining the final DMSO concentration at less than 1%. Positive control compound HupA was serially diluted in a similar fashion as the synthesized compounds.
(§2) Amyloid Preparation. The peptide Aβ1-42, referred to as “Aβ”, was obtained from a commercial source. The oligomers of Aβ were prepared using an established method,^43 Aβ peptide was resuspended in 0.5 mM NaOH at a concentration of […] and stored at −80° C. For use in cell cultures, the stock solution was incubated at 37° C. for 5-7 days. Before use, the peptide was diluted to 25 μM in DMEM/low glucose media.
(§3) Cell Viability Assays. The SH-SY5Y cells were plated at a density of 50,000 cells/well in 96-well plates and allowed to adapt overnight in a humidified atmosphere containing 5% CO2 at 37° C. The cells were pretreated (24 hours) with the test compound and exchanged to a serum-free DMEM/low glucose media, prior to incubation with 25 μM of Aβ. Cell viability was measured after 48 hours using commercial MTS assay or lactate dehydrogenase (LDH) cytotoxicity assay.
Employing human neuroblastoma SH-SY5Y ‘neuron-like’ cells, known to express ABAD,^20 experimental conditions are described herein that result in reproducible loss of 65% cell viability upon treatment with 25 μM Aβ after 48-hour incubation (FIG. 4A). Compound 1 (AG18051) and its analog 14b were screened for toxic effects in the SH-SY5Y cell lines.
HupA at 10 μM concentration provided 74% protection from Aβ-induced toxicity. […] Again, synthesized compound 14b at 1 μM, afforded greater protection than HupA at 10 μM concentration.

SH-SY5Y cells [3] = test: Mitochondrial Stress Test in Aβ-treated SH-SY5Y cells (extracellular flux analyzer); assay type: cell-based, human; settings: for proton leak, ATP production and maximal respiration: restoration of mitochondrial function lost by Aβ: then 25 μM Aβ
Experimental: Mitochondrial Stress Test. […] After 48 hours, media was replaced with assay medium consisting of XF Base Medium supplemented with 10 mM glucose, 10 mM pyruvic acid, and 1 mM L-glutamine. Subsequently, the analysis of mitochondrial oxygen consumption rate (OCR) was performed in a flux analyzer. The OCR values were obtained both during baseline (prior to addition of any Mito Stress Test substances), and after the addition of […], 2 μM FCCP and 0.5 μM rotenone+0.5 μM antimycin A, respectively. Prior to analysis, data were corrected by withdrawing non-mitochondrial respiration (measured after the injection of rotenone and antimycin A) from all measured OCR values. After the experiment, cells were lysed using RIPA buffer and protease inhibitor cocktail, then proteins were quantified via BCA assay. Results were normalized to protein concentration of each well to its OCR value.

[4] = cited from earlier work
SH-SY5Y cells [5] = test: Cell viability of SH-SY5Y cells with compound alone; assay type: cell-based, human; settings: up to 100 μM
Experimental: as §1
as §3, with “assay. […]” for “assay.”

SH-SY5Y cells [6] = test: Aβ-induced toxicity in SH-SY5Y cells, lactate dehydrogenase (LDH) release assay; assay type: cell-based, human; settings: 1 μM, pretreated 24 hrs, then 25 μM Aβ 48 hrs
Experimental: as §1, §2
Cell Viability Assays. […] Cell viability was measured after 48 hours using commercial MTS assay or lactate dehydrogenase (LDH) cytotoxicity assay. […]

Aβ-ABAD PPI = molecular target: T2, Aβ-ABAD PPI (Homo sapiens, UniProt Q99714); test: Estradiol ELISA assay: rescue of Aβ-induced reduction of estradiol levels in SH-SY5Y cells; assay type: cell-based
T2 construct: wildtype human SH-SY5Y cell lines, which are known to express ABAD; endogenous in cells; host or cells: SH-SY5Y
T2 sequence (Q99714 2-261 limits assumed): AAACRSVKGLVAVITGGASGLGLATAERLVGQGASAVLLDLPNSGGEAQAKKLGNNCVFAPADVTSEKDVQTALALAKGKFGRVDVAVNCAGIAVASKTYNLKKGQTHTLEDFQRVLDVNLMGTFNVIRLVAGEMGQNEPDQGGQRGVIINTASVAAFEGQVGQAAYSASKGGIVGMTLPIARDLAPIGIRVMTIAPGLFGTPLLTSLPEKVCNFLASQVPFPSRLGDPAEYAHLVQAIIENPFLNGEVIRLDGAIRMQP
Experimental: as §1, §2
Estradiol ELISA assay. SH-SY5Y cells were treated with compounds (24 hours), followed by Aβ (72 hours) in a similar fashion to that employed in the cell viability assays, the cell culture medium was collected, and cells were lysed using RIPA buffer and protease inhibitor cocktail, then proteins were quantified via BCA assay. An estradiol assay was performed. In brief, the plate was loaded with samples, along with the estradiol tracer and the specific antiserum to estradiol and incubated for one hour at room temperature. After five washing steps, Ellman's Reagent was added, and the plate developed for 60 minutes with gentle shaking at room temperature. The calculated estradiol concentration was normalized to the total protein content of the samples.
Statistical Analyses. The IC50 values of each compound were acquired from a single experiment with each inhibitor concentration run in triplicate and the statistical significance was calculated using the Student t test, or a one-way or two-way ANOVA. A P value of <0.05 was considered statistically significant. IC50 values were calculated.
To determine the effect of Aβ on estradiol production, and ABAD's role in this process, wildtype human SH-SY5Y cell lines, which are known to express ABAD, were incubated for 72 hours with Aβ.^20 Estradiol levels in the cell lysate were measured with a commercial ELISA-based estradiol assay. […] To determine if AG18051 treatment affects Aβ-induced reduction of estradiol levels, 0.1 or 1 μM AG18051 was preincubated in SH-SY5Y cells for 24 hours prior to Aβ exposure. […] AG18051 at 1 μM protected SH-SY5Y cells from Aβ-induced reduction of estradiol production to a greater significance than HupA. This confirms literature reports that AG18051 is neuroprotective and that it exerts this effect by ameliorating Aβ-induced reduction of estradiol production by ABAD.^20, 23
This assay methodology allows direct screening of compound activity in the presence of Aβ and provides direct evidence of the ability of compounds to rescue Aβ-induced reduction of estradiol production by ABAD. To measure the effect of AG18051 alone in SH-SY5Y cell lines, a 0.01-100 μM dose-response range was tested, and their effect on estradiol levels (FIG. 2B). […] To evaluate the effect of the increase of AG18051 dose in maintaining estradiol levels reduced by Aβ, AG18051 was tested in increasing concentrations in the presence of Aβ (FIG. 2B).

ABAD [7] = molecular target: T1, ABAD; test: Estradiol levels in SH-SY5Y cells treated with the substance alone; assay type: cell-based; set-up: To measure the effect of AG18051 alone in SH-SY5Y cell lines; endogenous in cells; host or cells: SH-SY5Y
Experimental: Estradiol ELISA assay. […] An estradiol assay was performed. In brief, the plate was loaded with samples, along with the estradiol tracer and the specific antiserum to estradiol and incubated for one hour at room temperature. After five washing steps, Ellman's Reagent was added, and the plate developed for 60 minutes with gentle shaking at room temperature. The calculated estradiol concentration was normalized to the total protein content of the samples.

With `C/C=C1\[C@H]2C=C(C)C[C@]1(N)c1ccc(=O)[nH]c1C2` [Huperzine A] as the compound, how does the ABAD inhibition activity (ABAD [1]) read?
The ABAD inhibition activity was “possess ABAD inhibition activity”.

And the “protection from Aβ-induced toxicity (MTS assay)” value (SH-SY5Y cells [2]; 10 μM)?
Its value is 74%.

And the “basal respiration: restored respiration levels” value (SH-SY5Y cells [3]; 10 μM pretreatment 24 hrs, then 25 μM Aβ 48 hrs)?
Its value is 46%.

And the “proton leak, ATP production and maximal respiration: restoration of mitochondrial function lost by Aβ” value (SH-SY5Y cells [3]; 10 μM pretreatment)?
Its value is “trend to restore”.

For `O=C(C(c1ccccc1)n1cnc2[nH]ncc2c1=S)N1CCCCCC1` (centres unmarked) [Compound 1, 1-(azepan-1-yl)-2-phenyl-2-(4-thioxo-1,4-dihydro-5H-pyrazolo[3,4-d]pyrimidin-5-yl)ethan-1-one, reference compound], which “protection of cell viability (MTS assay)” value (SH-SY5Y cells [2]; 1 μM) is on record?
Its value is 79%.

What about the “basal respiration: restored share of the cell respiration reduced by Aβ” value (SH-SY5Y cells [3]; 1 μM pretreatment 24 hrs, then 25 μM Aβ 48 hrs) of the same compound?
Its value is 37%.

And the “proton leak, ATP production and maximal respiration: restoration of mitochondrial function lost by Aβ” value (SH-SY5Y cells [3]; 1 μM pretreatment)?
The value was “trend to restore”.

What about the solubility [4] of the same compound?
Its solubility is “poor solubility”.

And the “toxicity to reduce cell viability” value (SH-SY5Y cells [5])?
Its value is “no toxicity”.

And the “LDH release compared with Aβ treatment alone” value (SH-SY5Y cells [6])?
The value was “significantly reducing LDH release”.

And the IC50 (Aβ-ABAD PPI; compounds 24 hours then Aβ 72 hours, amelioration of Aβ-induced reduction of estradiol levels, read-out: IC50 (estradiol assay))?
Its IC50 is 1220 nM and 1200 nM.

And the “estradiol levels in the presence of Aβ” value (Aβ-ABAD PPI; preincubated 24 hours prior to Aβ exposure, compared to Aβ-only control, listed as AG18051)?
Its value is “significantly maintained estradiol levels; also recorded: dose-dependent increase in estradiol levels”.

What about the “effect on estradiol levels, compound alone” value (ABAD [7]; 0.01-100 μM dose-response range) of the same compound?
The value was “no significant reduction in estradiol levels”.

And the “decrease in estradiol levels compared to control” value (ABAD [7]; compound alone at 100 μM)?
Its value is 20%.

From patent US20250101026A1, “Functionalized Allopurinol Derivatives for Treatment of Alzheimer’s Disease” (BOARD OF REGENTS OF THE UNIVERSITY OF NEBRASKA, priority 2022, published 2025)
